# Source: ChEMBL document CHEMBL1201861, “Genomics of Drug Sensitity in Cancer screening data, Wellcome Trust Sanger Institute”
# Experiments:
# Experiment in all cases: cells
# AN3-CA = format: functional, cell-based; conditions: Homo sapiens;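 also: growth inhibition of human AN3-CA cells measured by a cell viability assay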
# Description: SANGER: Inhibition of human AN3-CA cell growth in a cell viability assay.
# RPMI-8866 = format: functional, cell-based; conditions: Homo sapiens
# Description: SANGER: Inhibition of human RPMI-8866 cell growth in a cell viability assay.
# MeWo = format: functional, cell-based, Homo sapiens; conditions: Homo sapiens, MeWo;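 also: growth inhibition of MeWo cells, determined by a cell viability readout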
# Description: SANGER: Inhibition of human Mewo cell growth in a cell viability assay.
# KU812 cell line = format: functional, cell-based; conditions: Homo sapiens;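 also: growth inhibition of KU812 cells, read out with a cell viability assay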
# Description: SANGER: Inhibition of human KU812 cell growth in a cell viability assay.
# CaR-1 = format: functional, cell-based, Homo sapiens; conditions: Homo sapiens, CaR-1;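 also: growth inhibition of human CaR-1 cancer cells, read out with a cell viability assay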
# Description: SANGER: Inhibition of human CaR-1 cell growth in a cell viability assay.
# SF-126 = format: functional, cell-based, Homo sapiens; conditions: Homo sapiens, SF-126;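 also: growth inhibition of human SF126 cells, read out with a cell viability assay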
# Description: SANGER: Inhibition of human SF126 cell growth in a cell viability assay.
# U2OS = format: functional, cell-based, Homo sapiens, U-2-OS; conditions: Homo sapiens, U2OS;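 also: growth inhibition of human U-2-OS cells, determined with a cell viability assay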
# Description: SANGER: Inhibition of human U-2-OS cell growth in a cell viability assay.
# ESS-1 = format: functional, cell-based, Homo sapiens; conditions: Homo sapiens, ESS-1;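 also: growth inhibition of human ESS-1 cells, read out by a cell viability assay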
# Description: SANGER: Inhibition of human ESS-1 cell growth in a cell viability assay.
# PC-3 = format: functional, cell-based, Homo sapiens; conditions: Homo sapiens, PC-3;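 also: cell viability assay measuring growth inhibition of PC-3 cells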
# Description: SANGER: Inhibition of human PC-3 cell growth in a cell viability assay.
# S-117 = format: functional, cell-based, Homo sapiens; conditions: Homo sapiens, S-117
# Description: SANGER: Inhibition of human S-117 cell growth in a cell viability assay.
# NCI-H1355 = format: functional, cell-based, Homo sapiens; conditions: Homo sapiens, NCI-H1355;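 also: growth inhibition of human NCI-H1355 cells, read out by a cell viability assay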
# Description: SANGER: Inhibition of human NCI-H1355 cell growth in a cell viability assay.
# M14 = format: functional, cell-based, Homo sapiens; conditions: Homo sapiens, M14;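 also: growth inhibition of M14 cells, read out with a cell viability assay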
# Description: SANGER: Inhibition of human M14 cell growth in a cell viability assay.
# SCC-9 = format: functional, cell-based, Homo sapiens; conditions: Homo sapiens, SCC-9;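 also: Read-out is a cell viability assay, with values giving inhibition of cell growth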
# Description: SANGER: Inhibition of human SCC-9 cell growth in a cell viability assay.
# NCI-H69 = format: functional, cell-based; conditions: Homo sapiens;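 also: growth inhibition of the cell line, read out with a cell viability assay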
# Description: SANGER: Inhibition of human NCI-H69 cell growth in a cell viability assay.
# NMC-G1 = format: functional, cell-based, Homo sapiens; conditions: Homo sapiens, NMC-G1;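 also: growth inhibition of the NMC-G1 cell line, measured with a cell viability read-out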
# Description: SANGER: Inhibition of human NMC-G1 cell growth in a cell viability assay.
# NCI-H292 = format: functional, cell-based, Homo sapiens; conditions: Homo sapiens, NCI-H292;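 also: growth inhibition of NCI-H292 cells, read out with a cell viability assay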
# Description: SANGER: Inhibition of human NCI-H292 cell growth in a cell viability assay.
# EW-3 = format: functional, cell-based; conditions: Homo sapiens;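 also: cell viability assay read-out, IC50 reflects inhibition of growth of the EW-3 cells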
# Description: SANGER: Inhibition of human EW-3 cell growth in a cell viability assay.
# CAPAN-1 = format: functional, cell-based, Homo sapiens; conditions: Homo sapiens, CAPAN-1;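 also: growth suppression of CAPAN-1 cells, read out by a cell viability assay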
# Description: SANGER: Inhibition of human CAPAN-1 cell growth in a cell viability assay.
# SW-620 = format: functional, cell-based, Homo sapiens; conditions: Homo sapiens, SW-620;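 also: growth inhibition of human SW-620 cells, measured by a cell viability assay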
# Description: SANGER: Inhibition of human SW620 cell growth in a cell viability assay.
# DOK = format: functional, cell-based, Homo sapiens; conditions: Homo sapiens, DOK;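 also: cell viability assay read-out, values reflect inhibition of cell growth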
# Description: SANGER: Inhibition of human DOK cell growth in a cell viability assay.
# HCE-4 = format: functional, cell-based, Homo sapiens; conditions: Homo sapiens, HCE-4;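 also: cell viability assay measuring inhibition of growth in the human HCE-4 cell line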
# Description: SANGER: Inhibition of human HCE-4 cell growth in a cell viability assay.
# KE-37 = format: functional, cell-based; conditions: Homo sapiens;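 also: growth inhibition of KE-37 cells, read out with a cell viability assay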
# Description: SANGER: Inhibition of human KE-37 cell growth in a cell viability assay.
# NCI-H1755 = format: functional, cell-based, Homo sapiens; conditions: Homo sapiens, NCI-H1755;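 also: cell viability readout used to measure growth inhibition of NCI-H1755 cells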
# Description: SANGER: Inhibition of human NCI-H1755 cell growth in a cell viability assay.
# KARPAS-45 = format: functional, cell-based; conditions: Homo sapiens;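 also: inhibition of cell line growth, read out through a viability assay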
# Description: SANGER: Inhibition of human KARPAS-45 cell growth in a cell viability assay.
# SiHa = format: functional, cell-based, Homo sapiens; conditions: Homo sapiens, SiHa;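 also: Viability-based readout of growth inhibition in SiHa cells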
# Description: SANGER: Inhibition of human SiHa cell growth in a cell viability assay.
# OCUB-M = format: functional, cell-based, Homo sapiens; conditions: Homo sapiens, OCUB-M;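 also: growth inhibition of the cancer cell line, read out through a cell viability assay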
# Description: SANGER: Inhibition of human OCUB-M cell growth in a cell viability assay.
# HMV-2 cell line = format: functional, cell-based, Homo sapiens; conditions: Homo sapiens, HMV-2;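 also: growth inhibition of HMV-II cells, read out with a cell viability assay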
# Description: SANGER: Inhibition of human HMV-II cell growth in a cell viability assay.
# AU565 = format: functional, cell-based, Homo sapiens; conditions: Homo sapiens, AU565;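 also: cell viability assay measuring growth inhibition of human AU565 cells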
# Description: SANGER: Inhibition of human AU565 cell growth in a cell viability assay.
# EW-18 = format: functional, cell-based; conditions: Homo sapiens;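 also: growth inhibition of EW-18 cells, read out by a cell viability assay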
# Description: SANGER: Inhibition of human EW-18 cell growth in a cell viability assay.
# JEG-3 = format: functional, cell-based, Homo sapiens; conditions: Homo sapiens, JEG-3;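 also: growth inhibition of human JEG-3 cells, read out with a cell viability assay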
# Description: SANGER: Inhibition of human JEG-3 cell growth in a cell viability assay.
# NCI-H82 = format: functional, cell-based; conditions: Homo sapiens;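 also: growth inhibition of NCI-H82 cells, measured with a cell viability readout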
# Description: SANGER: Inhibition of human NCI-H82 cell growth in a cell viability assay.
# 786-0 = format: functional, cell-based, Homo sapiens; conditions: Homo sapiens
# Description: SANGER: Inhibition of human 786-0 cell growth in a cell viability assay.
# LoVo = format: functional, cell-based; conditions: Homo sapiens;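 also: growth inhibition of human LoVo cells, read out with a cell viability assay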
# Description: SANGER: Inhibition of human LoVo cell growth in a cell viability assay.
# KS-1 = format: functional, cell-based, Homo sapiens; conditions: Homo sapiens, KS-1;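 also: growth inhibition of KS-1 cells, read out with a cell viability assay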
# Description: SANGER: Inhibition of human KS-1 cell growth in a cell viability assay.
# SW872 = format: functional, cell-based, Homo sapiens; conditions: Homo sapiens, SW872;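 also: growth inhibition of SW872 cells, read out by a viability assay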
# Description: SANGER: Inhibition of human SW872 cell growth in a cell viability assay.
# VM-CUB-1 = format: functional, cell-based; conditions: Homo sapiens;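 also: cell viability assay measuring growth inhibition of the human VM-CUB-1 cell line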
# Description: SANGER: Inhibition of human VM-CUB-1 cell growth in a cell viability assay.
# HCC1954 = format: functional, cell-based, Homo sapiens; conditions: Homo sapiens, HCC1954;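 also: growth inhibition of human HCC1954 cells, read out with a cell viability assay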
# Description: SANGER: Inhibition of human HCC1954 cell growth in a cell viability assay.
# OVCAR-4 = format: functional, cell-based, Homo sapiens; conditions: Homo sapiens, OVCAR-4;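 also: growth inhibition of human OVCAR-4 cells, measured with a cell viability assay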
# Description: SANGER: Inhibition of human OVCAR-4 cell growth in a cell viability assay.
# COLO-668 = format: functional, cell-based, Homo sapiens; conditions: Homo sapiens, COLO-668
# Description: SANGER: Inhibition of human COLO-668 cell growth in a cell viability assay.
# BFTC-905 = format: functional, cell-based, Homo sapiens; conditions: Homo sapiens, BFTC-905
# Description: SANGER: Inhibition of human BFTC-905 cell growth in a cell viability assay.
# CAL-51 = format: functional, cell-based, Homo sapiens; conditions: Homo sapiens, CAL-51;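 also: human CAL-51 cell line, growth inhibition read out via a cell viability assay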
# Description: SANGER: Inhibition of human CAL-51 cell growth in a cell viability assay.
# RKO = format: functional, cell-based, Homo sapiens; conditions: Homo sapiens, RKO;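 also: growth inhibition of human RKO cells, read out with a cell viability assay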
# Description: SANGER: Inhibition of human RKO cell growth in a cell viability assay.
# KLE = format: functional, cell-based, Homo sapiens; conditions: Homo sapiens, KLE;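 also: growth inhibition of human KLE cells, read out with a cell viability assay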
# Description: SANGER: Inhibition of human KLE cell growth in a cell viability assay.
# C8166 = format: functional, cell-based; conditions: Homo sapiens;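 also: growth inhibition of human C8166 cells measured by a cell viability assay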
# Description: SANGER: Inhibition of human C8166 cell growth in a cell viability assay.
# D-502MG = format: functional, cell-based, Homo sapiens; conditions: Homo sapiens, D-502MG
# Description: SANGER: Inhibition of human D-502MG cell growth in a cell viability assay.
# A3-KAW = format: functional, cell-based; conditions: Homo sapiens;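 also: growth inhibition of human A3-KAW cells, read out with a cell viability assay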
# Description: SANGER: Inhibition of human A3-KAW cell growth in a cell viability assay.
# KYSE-180 = format: functional, cell-based, Homo sapiens; conditions: Homo sapiens, KYSE-180;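 also: growth inhibition of KYSE-180 cells, read out with a cell viability assay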
# Description: SANGER: Inhibition of human KYSE-180 cell growth in a cell viability assay.
# C2BBe1 = format: functional, cell-based, Homo sapiens; conditions: Homo sapiens, C2BBe1;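 also: growth inhibition of C2BBe1 cells, read out through a viability assay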
# Description: SANGER: Inhibition of human C2BBe1 cell growth in a cell viability assay.
# A388 = format: functional, cell-based, Homo sapiens; conditions: Homo sapiens, A388;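 also: growth inhibition of human A388 cells, read out with a cell viability assay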
# Description: SANGER: Inhibition of human A388 cell growth in a cell viability assay.
# TGW = format: functional, cell-based; conditions: Homo sapiens;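 also: growth inhibition of human TGW cells, read out with a cell viability assay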
# Description: SANGER: Inhibition of human TGW cell growth in a cell viability assay.
# SK-LU-1 = format: functional, cell-based, Homo sapiens; conditions: Homo sapiens, SK-LU-1;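 also: cell viability assay measuring growth inhibition of human SK-LU-1 cells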
# Description: SANGER: Inhibition of human SK-LU-1 cell growth in a cell viability assay.
# P30-OHK = format: functional, cell-based; conditions: Homo sapiens;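 also: growth inhibition of the P30-OHK cell line, read out with a cell viability assay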
# Description: SANGER: Inhibition of human P30-OHK cell growth in a cell viability assay.
# M059J = format: functional, cell-based, Homo sapiens; conditions: Homo sapiens, M059J;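 also: growth inhibition of M059J cells, read out with a cell viability assay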
# Description: SANGER: Inhibition of human M059J cell growth in a cell viability assay.
# MOLT-16 = format: functional, cell-based; conditions: Homo sapiens;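 also: growth inhibition of human MOLT-16 cells, read out with a cell viability assay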
# Description: SANGER: Inhibition of human MOLT-16 cell growth in a cell viability assay.
structure (smiles),measurement,setting,value
CCOc1nc(NC(=O)Cc2cc(OC)ccc2OC)cc(N)c1C#N,IC50,AN3-CA,> 10 µM
same,IC50,RPMI-8866,> 10 µM
same,IC50,MeWo,> 10 µM
same,IC50,KU812 cell line,> 10 µM
same,IC50,CaR-1,> 10 µM
same,IC50,SF-126,> 10 µM
same,IC50,U2OS,> 10 µM
same,IC50,ESS-1,> 10 µM
same,IC50,PC-3,> 10 µM
same,IC50,S-117,> 10 µM
same,IC50,NCI-H1355,> 10 µM
same,IC50,M14,> 10 µM
same,IC50,SCC-9,> 10 µM
same,IC50,NCI-H69,> 10 µM
same,IC50,NMC-G1,> 10 µM
same,IC50,NCI-H292,> 10 µM
same,IC50,EW-3,> 10 µM
same,IC50,CAPAN-1,> 10 µM
same,IC50,SW-620,> 10 µM
same,IC50,DOK,> 10 µM
same,IC50,HCE-4,> 10 µM
same,IC50,KE-37,> 10 µM
same,IC50,NCI-H1755,> 10 µM
same,IC50,KARPAS-45,> 10 µM
same,IC50,SiHa,> 10 µM
same,IC50,OCUB-M,> 10 µM
same,IC50,HMV-2 cell line,> 10 µM
same,IC50,AU565,> 10 µM
same,IC50,EW-18,> 10 µM
same,IC50,JEG-3,> 10 µM
same,IC50,NCI-H82,> 10 µM
same,IC50,786-0,> 10 µM
same,IC50,LoVo,> 10 µM
same,IC50,KS-1,> 10 µM
same,IC50,SW872,> 10 µM
same,IC50,VM-CUB-1,> 10 µM
same,IC50,HCC1954,> 10 µM
same,IC50,OVCAR-4,> 10 µM
same,IC50,COLO-668,> 10 µM
same,IC50,BFTC-905,> 10 µM
same,IC50,CAL-51,> 10 µM
same,IC50,RKO,> 10 µM
same,IC50,KLE,> 10 µM
same,IC50,C8166,> 10 µM
same,IC50,D-502MG,> 10 µM
same,IC50,A3-KAW,> 10 µM
same,IC50,KYSE-180,> 10 µM
same,IC50,C2BBe1,> 10 µM
same,IC50,A388,> 10 µM
same,IC50,TGW,> 10 µM
same,IC50,SK-LU-1,> 10 µM
same,IC50,P30-OHK,> 10 µM
same,IC50,M059J,> 10 µM
same,IC50,MOLT-16,> 10 µM
O=C1N=C(NCc2cccs2)S/C1=C\c1ccc2ncccc2c1,IC50,AN3-CA,> 5 µM
same,IC50,RPMI-8866,> 5 µM
same,IC50,MeWo,> 5 µM
same,IC50,KU812 cell line,> 5 µM
same,IC50,CaR-1,> 5 µM
same,IC50,SF-126,> 5 µM
same,IC50,U2OS,> 5 µM
same,IC50,ESS-1,> 5 µM
same,IC50,PC-3,> 5 µM
same,IC50,S-117,> 5 µM
same,IC50,NCI-H1355,> 5 µM
same,IC50,M14,> 5 µM
same,IC50,SCC-9,> 5 µM
same,IC50,NCI-H69,> 5 µM
same,IC50,NMC-G1,> 5 µM
same,IC50,NCI-H292,> 5 µM
same,IC50,EW-3,> 5 µM
same,IC50,CAPAN-1,> 5 µM
same,IC50,SW-620,> 5 µM
same,IC50,DOK,> 5 µM
same,IC50,HCE-4,> 5 µM
same,IC50,KE-37,> 5 µM
same,IC50,NCI-H1755,> 5 µM
same,IC50,KARPAS-45,> 5 µM
same,IC50,SiHa,> 5 µM
same,IC50,OCUB-M,> 5 µM
same,IC50,HMV-2 cell line,> 5 µM
same,IC50,AU565,> 5 µM
same,IC50,EW-18,> 5 µM
same,IC50,JEG-3,> 5 µM
same,IC50,NCI-H82,> 5 µM
same,IC50,786-0,> 5 µM
same,IC50,LoVo,> 5 µM
same,IC50,KS-1,> 5 µM
same,IC50,SW872,> 5 µM
same,IC50,VM-CUB-1,> 5 µM
same,IC50,HCC1954,> 5 µM
same,IC50,OVCAR-4,> 5 µM
same,IC50,COLO-668,> 5 µM
same,IC50,BFTC-905,> 5 µM
same,IC50,CAL-51,> 5 µM
same,IC50,RKO,> 5 µM
same,IC50,KLE,> 5 µM
same,IC50,C8166,> 5 µM
same,IC50,D-502MG,> 5 µM
same,IC50,A3-KAW,> 5 µM
same,IC50,KYSE-180,> 5 µM
same,IC50,C2BBe1,> 5 µM
same,IC50,A388,> 5 µM
same,IC50,TGW,> 5 µM
same,IC50,SK-LU-1,> 5 µM
same,IC50,P30-OHK,> 5 µM
same,IC50,M059J,> 5 µM
same,IC50,MOLT-16,> 5 µM
COc1cc([C@@H]2c3cc4c(cc3[C@@H](O[C@@H]3O[C@@H]5CO[C@@H](C)O[C@H]5[C@H](O)[C@H]3O)[C@H]3COC(=O)[C@H]23)OCO4)cc(OC)c1O [ETOPOSIDE],IC50,AN3-CA,2.2 µM
same,IC50,RPMI-8866,4.65 µM
same,IC50,MeWo,6.79 µM
same,IC50,KU812 cell line,2.03 µM
same,IC50,CaR-1,8.6 µM
same,IC50,SF-126,1.44 µM
same,IC50,U2OS,> 16 µM
same,IC50,ESS-1,0.531 µM
same,IC50,PC-3,> 16 µM
same,IC50,S-117,> 16 µM
same,IC50,NCI-H1355,0.39 µM
same,IC50,M14,7.95 µM
same,IC50,SCC-9,0.85 µM
same,IC50,NCI-H69,8.18 µM
same,IC50,NMC-G1,3.32 µM
same,IC50,NCI-H292,4.71 µM
same,IC50,EW-3,14.3 µM
same,IC50,CAPAN-1,1.25 µM
same,IC50,SW-620,0.384 µM
same,IC50,DOK,> 16 µM
same,IC50,HCE-4,0.801 µM
same,IC50,KE-37,0.0407 µM
same,IC50,NCI-H1755,> 16 µM
same,IC50,KARPAS-45,> 16 µM
same,IC50,SiHa,> 16 µM
same,IC50,OCUB-M,0.0446 µM
same,IC50,HMV-2 cell line,0.569 µM
same,IC50,AU565,2.61 µM
same,IC50,EW-18,> 16 µM
same,IC50,JEG-3,3.04 µM
same,IC50,NCI-H82,> 16 µM
same,IC50,786-0,0.492 µM
same,IC50,LoVo,2.06 µM
same,IC50,KS-1,0.334 µM
same,IC50,SW872,0.64 µM
same,IC50,VM-CUB-1,2.58 µM
same,IC50,HCC1954,10 µM
same,IC50,OVCAR-4,> 16 µM
same,IC50,COLO-668,1.66 µM
same,IC50,BFTC-905,0.426 µM
same,IC50,CAL-51,1.08 µM
same,IC50,RKO,0.471 µM
same,IC50,KLE,10.3 µM
same,IC50,C8166,1.68 µM
same,IC50,D-502MG,> 16 µM
same,IC50,A3-KAW,0.358 µM
same,IC50,KYSE-180,2.07 µM
same,IC50,C2BBe1,> 16 µM
same,IC50,A388,3.33 µM
same,IC50,TGW,> 16 µM
same,IC50,SK-LU-1,1.29 µM
same,IC50,P30-OHK,1.21 µM
same,IC50,M059J,0.364 µM
same,IC50,MOLT-16,12.5 µM
